Legend:
Format in all cases: in vivo
[1] = tested on: ragweed (common ragweed, Ambrosia elatior); assay: Test A preemergence; details: for Plant response rating, Ragweed: 125 g ai/ha, preemergence, 0 to 100 scale (0 no effect, 100 complete control); for Ragweed plant response rating (0 to 100 scale, 0 is no effect, 100 is complete control): Preemergence, 500 g ai/ha, visual injury approx. 10 d
How it was run: (§1)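 Preemergence soil spray on seeded pots or post-emergence spray on 1–2 leaf plants, in loam–sand blend. Greenhouse ~10 d. Visual rating 0–100 against untreated plants.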

[2] = tested on: pigweed (Amaranthus retroflexus); assay: Test A preemergence; details: for Plant response rating, Pigweed: 125 g ai/ha, preemergence, 0 to 100 scale (0 no effect, 100 complete control); for Pigweed plant response rating (0 to 100 scale, 0 is no effect, 100 is complete control): Preemergence, 500 g ai/ha, visual injury approx. 10 d
[3] = tested on: ryegrass, Italian (Italian ryegrass, Lolium multiflorum); assay: Test A preemergence; details: for Plant response rating, Ryegrass, Italian: 125 g ai/ha, preemergence, 0 to 100 scale (0 no effect, 100 complete control); for Ryegrass, Italian plant response rating (0 to 100 scale, 0 is no effect, 100 is complete control): Preemergence, 500 g ai/ha, visual injury approx. 10 d
How it was run: as §1

[4] = tested on: giant foxtail (Setaria faberii); assay: Test A preemergence; details: for Plant response rating, Foxtail, Giant: 125 g ai/ha, preemergence, 0 to 100 scale (0 no effect, 100 complete control); for Foxtail, Giant plant response rating (0 to 100 scale, 0 is no effect, 100 is complete control): Preemergence, 500 g ai/ha, visual injury approx. 10 d
How it was run: as §1

[5] = tested on: Kochia (Kochia scoparia); assay: Test A preemergence; details: for Plant response rating, Kochia: 125 g ai/ha, preemergence, 0 to 100 scale (0 no effect, 100 complete control); for Kochia plant response rating (0 to 100 scale, 0 is no effect, 100 is complete control): Preemergence, 500 g ai/ha, visual injury approx. 10 d
How it was run: as §1

[6] = tested on: barnyardgrass (Echinochloa crus-galli); assay: Test A preemergence; details: for Plant response rating, Barnyardgrass: 125 g ai/ha, preemergence, 0 to 100 scale (0 no effect, 100 complete control); for Barnyardgrass plant response rating (0 to 100 scale, 0 is no effect, 100 is complete control): Preemergence, 500 g ai/ha, visual injury approx. 10 d
How it was run: as §1

[7] = tested on: ragweed (common ragweed, Ambrosia elatior); assay: Test A postemergence; details: postemergence; for Ragweed plant response rating: 125 g ai/ha, visual injury rating on 0 to 100 scale (0 no effect, 100 complete control), approx. 10 d; for Plant response rating, Ragweed: 500 g ai/ha, 0 to 100 scale, 0 no effect, 100 complete control
How it was run: as §1

[8] = tested on: pigweed (Amaranthus retroflexus); assay: Test A postemergence; details: postemergence; for Pigweed plant response rating: 125 g ai/ha, visual injury rating on 0 to 100 scale (0 no effect, 100 complete control), approx. 10 d; for Plant response rating, Pigweed: 500 g ai/ha, 0 to 100 scale, 0 no effect, 100 complete control
How it was run: as §1

[9] = tested on: wheat (Triticum aestivum); assay: Test A postemergence; details: postemergence; for Wheat plant response rating: 125 g ai/ha, visual injury rating on 0 to 100 scale (0 no effect, 100 complete control), approx. 10 d; for Plant response rating, Wheat: 500 g ai/ha, 0 to 100 scale, 0 no effect, 100 complete control
How it was run: as §1

[10] = tested on: blackgrass (Alopecurus myosuroides); assay: Test A postemergence; details: postemergence; for Blackgrass plant response rating: 125 g ai/ha, visual injury rating on 0 to 100 scale (0 no effect, 100 complete control), approx. 10 d; for Plant response rating, Blackgrass: 500 g ai/ha, 0 to 100 scale, 0 no effect, 100 complete control
How it was run: as §1

[11] = tested on: ryegrass, Italian (Italian ryegrass, Lolium multiflorum); assay: Test A postemergence; details: postemergence; for Ryegrass, Italian plant response rating: 125 g ai/ha, visual injury rating on 0 to 100 scale (0 no effect, 100 complete control), approx. 10 d; for Plant response rating, Ryegrass, Italian: 500 g ai/ha, 0 to 100 scale, 0 no effect, 100 complete control
How it was run: as §1

[12] = tested on: giant foxtail (Setaria faberii); assay: Test A postemergence; details: postemergence; for Foxtail, Giant plant response rating: 125 g ai/ha, visual injury rating on 0 to 100 scale (0 no effect, 100 complete control), approx. 10 d; for Plant response rating, Foxtail, Giant: 500 g ai/ha, 0 to 100 scale, 0 no effect, 100 complete control
How it was run: as §1

[13] = tested on: Kochia (Kochia scoparia); assay: Test A postemergence; details: postemergence; for Kochia plant response rating: 125 g ai/ha, visual injury rating on 0 to 100 scale (0 no effect, 100 complete control), approx. 10 d; for Plant response rating, Kochia: 500 g ai/ha, 0 to 100 scale, 0 no effect, 100 complete control
How it was run: as §1

[14] = tested on: Galium (catchweed bedstraw, Galium aparine); assay: Test A postemergence; details: postemergence; for Galium plant response rating: 125 g ai/ha, visual injury rating on 0 to 100 scale (0 no effect, 100 complete control), approx. 10 d; for Plant response rating, Galium: 500 g ai/ha, 0 to 100 scale, 0 no effect, 100 complete control
How it was run: as §1

[15] = tested on: barnyardgrass (Echinochloa crus-galli); assay: Test A postemergence; details: postemergence; for Barnyardgrass plant response rating: 125 g ai/ha, visual injury rating on 0 to 100 scale (0 no effect, 100 complete control), approx. 10 d; for Plant response rating, Barnyardgrass: 500 g ai/ha, 0 to 100 scale, 0 no effect, 100 complete control
How it was run: as §1

[16] = tested on: corn (Zea mays); assay: Test A postemergence; details: postemergence; for Corn plant response rating: 125 g ai/ha, visual injury rating on 0 to 100 scale (0 no effect, 100 complete control), approx. 10 d; for Plant response rating, Corn: 500 g ai/ha, 0 to 100 scale, 0 no effect, 100 complete control
How it was run: as §1

[17] = tested on: ducksalad (Heteranthera limosa); assay: Test B flooded paddy test; details: Flood, 0 to 100 scale where 0 is no effect and 100 is complete control, 13 to 15 d
How it was run: (§2)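 Compound goes directly into floodwater once pots are flooded 3 cm above soil, targeting plants at two leaves; the water depth is then held for the test duration. Plants sit 13–15 d in a greenhouse and are rated visually, 100 denoting complete control.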

[18] = tested on: rice (Oryra sativa); assay: Test B flooded paddy test; details: Flood, 0 to 100 scale where 0 is no effect and 100 is complete control, 13 to 15 d
How it was run: as §2

[19] = tested on: sedge, umbrella (small-flower umbrella sedge, Cyperus difformis); assay: Test B flooded paddy test; details: Flood, 0 to 100 scale where 0 is no effect and 100 is complete control, 13 to 15 d
How it was run: as §2

[20] = tested on: barnyardgrass (Echinochloa crus-galli); assay: Test B flooded paddy test; details: Flood, 0 to 100 scale where 0 is no effect and 100 is complete control, 13 to 15 d
How it was run: as §2

[21] = tested on: ragweed (common ragweed, Ambrosia elatior); assay: Test C preemergence; details: scale 0 to 100, 0 no effect, 100 complete control
Excerpt: Seeds of plant species selected from blackgrass (Alopecurus myosuroides), ryegrass, Italian (Italian ryegrass, Lolium multiflorum), wheat (winter wheat, Triticum aestivum), Galium (catchweed bedstraw, Galium aparine), corn (Zea mays), crabgrass, large (large crabgrass, Digitaria sanguinalis), foxtail, giant (giant foxtail, Setaria faberii), johnsongrass (Sorghum halepense), lambsquarters (Chenopodium album), morningglory (Ipomoea coccinea), nutsedge, yellow (yellow nutsedge, Cyperus esculentus), pigweed (Amaranthus retroflexus), ragweed (common ragweed, Ambrosia elatior), soybean (Glycine max), barnyardgrass (Echinochloa crus-galli), oilseed rape (Brassica napus), waterhemp (common waterhemp, Amaranthus rudis) and velvetleaf (Abutilon theophrasti) were planted into a blend of loam soil and sand and treated preemergence with test chemicals formulated in a non-phytotoxic solvent mixture which included a surfactant.
At the same time, plants selected from these crop and weed species and also Kochia (Kochia scoparia), oat, wild (wild oat, Avena fatua), and chickweed (common chickweed, Stellaria media) were planted in pots containing Sunshine Redi-Earth® planting medium comprising spaghnum peat moss, vermiculite, starter nutrients and dolomitic limestone and treated with postemergence applications of test chemicals formulated in the same manner. Plants ranged in height from 2 to 18 cm (1- to 4-leaf stage) for postemergence treatments. Treated plants and controls were maintained in a greenhouse for 13 to 15 d, after which time all species were compared to controls and visually evaluated. Plant response ratings, summarized in Table C, are based on a scale of 0 to 100 where 0 is no effect and 100 is complete control. A dash (-) response means no test result.

SMILES | Plant response rating, Ragweed [1] | Plant response rating, Pigweed [2] | Pigweed plant response rating (0 to 100 scale, 0 is no effect, 100 is complete control) [2] | Plant response rating, Ryegrass, Italian [3] | Ryegrass, Italian plant response rating (0 to 100 scale, 0 is no effect, 100 is complete control) [3] | Plant response rating, Foxtail, Giant [4] | Foxtail, Giant plant response rating (0 to 100 scale, 0 is no effect, 100 is complete control) [4] | Plant response rating, Kochia [5] | Kochia plant response rating (0 to 100 scale, 0 is no effect, 100 is complete control) [5] | Plant response rating, Barnyardgrass [6] | Barnyardgrass plant response rating (0 to 100 scale, 0 is no effect, 100 is complete control) [6] | Ragweed plant response rating [7] | Plant response rating, Ragweed [7] | Pigweed plant response rating [8] | Plant response rating, Pigweed [8] | Wheat plant response rating [9] | Plant response rating, Wheat [9] | Blackgrass plant response rating [10] | Plant response rating, Blackgrass [10] | Ryegrass, Italian plant response rating [11] | also measured
O=C1NCC(c2cccc(OC(F)F)c2)C1C(=O)Nc1ccc(F)cc1F (centres unmarked) [Compound 421] | 30 | 20 | 40 | 0 | 30 | 90 | 90 | 70 | 80 | 90 | 90 | 20 | 30 | 0 | 30 | 0 | 40 | 20 | 50 | 20 | Ragweed plant response rating (0 to 100 scale, 0 is no effect, 100 is complete control) [1]: 40; Plant response rating, Ryegrass, Italian [11]: 40; Foxtail, Giant plant response rating [12]: 80; Plant response rating, Foxtail, Giant [12]: 90; Kochia plant response rating [13]: 0; Plant response rating, Kochia [13]: 20; Galium plant response rating [14]: 50; Plant response rating, Galium [14]: 60; Barnyardgrass plant response rating [15]: 70; Plant response rating, Barnyardgrass [15]: 90; Corn plant response rating [16]: 0; Plant response rating, Corn [16]: 70; Plant response rating, Ducksalad ([17]; 500 g ai/ha): 100; Plant response rating, Rice ([18]; 500 g ai/ha): 15; Plant response rating, Sedge, Umbrella ([19]; 500 g ai/ha): 0; Plant response rating, Barnyardgrass ([20]; 500 g ai/ha): 75; Plant response rating, Ragweed ([21]; 31 g ai/ha): 0; Plant response rating, Ragweed ([21]; 62 g ai/ha): 30; Plant response rating, Ragweed ([21]; 125 g ai/ha): 40; Plant response rating, Ragweed ([21]; 250 g ai/ha): 60
CN1CC(c2cccc(OC(F)(F)C(F)F)c2)C(C(=O)Nc2ccc(F)c(F)c2F)C1=O (centres unmarked) [Compound 429] | 50 | 80 | 80 | 70 | 80 | 90 | 100 | 70 | 80 | 90 | 90 | 30 | 50 | 70 | 80 | 50 | 60 | 50 | 70 | 60 | Plant response rating, Ryegrass, Italian [11]: 80; Foxtail, Giant plant response rating [12]: 90; Plant response rating, Foxtail, Giant [12]: 90; Kochia plant response rating [13]: 60; Plant response rating, Kochia [13]: 70; Galium plant response rating [14]: 70; Plant response rating, Galium [14]: 70; Barnyardgrass plant response rating [15]: 90; Plant response rating, Barnyardgrass [15]: 90; Corn plant response rating [16]: 70; Plant response rating, Corn [16]: 80; Plant response rating, Ducksalad ([17]; 250 g ai/ha): 100; Plant response rating, Rice ([18]; 250 g ai/ha): 15; Plant response rating, Sedge, Umbrella ([19]; 250 g ai/ha): 0; Plant response rating, Barnyardgrass ([20]; 250 g ai/ha): 65; Plant response rating, Ragweed ([21]; 31 g ai/ha): 0; Plant response rating, Ragweed ([21]; 62 g ai/ha): 40; Plant response rating, Ragweed ([21]; 125 g ai/ha): 75; Plant response rating, Ragweed ([21]; 250 g ai/ha): 75
CN1CC(c2cccc(OC(F)(F)C(F)F)c2)C(C(=O)Nc2ccccc2C(F)(F)F)C1=O (centres unmarked) [Compound 431] | 40 | 70 | 90 | 70 | 70 | 90 | 100 | 30 | 70 | 90 | 90 | 20 | 60 | 50 | 60 | 40 | 60 | 60 | 60 | 60 | Ragweed plant response rating (0 to 100 scale, 0 is no effect, 100 is complete control) [1]: 70; Plant response rating, Ryegrass, Italian [11]: 40; Foxtail, Giant plant response rating [12]: 80; Plant response rating, Foxtail, Giant [12]: 90; Kochia plant response rating [13]: 40; Plant response rating, Kochia [13]: 50; Galium plant response rating [14]: 60; Plant response rating, Galium [14]: 60; Barnyardgrass plant response rating [15]: 80; Plant response rating, Barnyardgrass [15]: 90; Corn plant response rating [16]: 60; Plant response rating, Corn [16]: 70; Plant response rating, Ducksalad ([17]; 250 g ai/ha): 100; Plant response rating, Rice ([18]; 250 g ai/ha): 25; Plant response rating, Sedge, Umbrella ([19]; 250 g ai/ha): 0; Plant response rating, Barnyardgrass ([20]; 250 g ai/ha): 40; Plant response rating, Ragweed ([21]; 31 g ai/ha): 50; Plant response rating, Ragweed ([21]; 62 g ai/ha): 40; Plant response rating, Ragweed ([21]; 125 g ai/ha): 40; Plant response rating, Ragweed ([21]; 250 g ai/ha): 60
